Non-standard residues stand in square brackets, D forms with d. No end group written: not given here. *: point of attachment. Myristoyl = CCCCCCCCCCCCCC(=O)*; Nle = CCCC[C@H](N)C(=O)O
Test system: ApoB
Test: Knockdown of endogenous serum ApoB in mice after co-injection of masked melittin delivery peptide and ApoB siRNA-cholesterol conjugate
Type: in vivo
Experimental: RNAi polynucleotide conjugates and masked melittin peptides were synthesized as described above. Six to eight week old mice (strain C57BL/6 or ICR, ˜18-20 g each) were obtained from Harlan Sprague Dawley (Indianapolis Ind.). Mice were housed at least 2 days prior to injection. Feeding was performed ad libitum with Harlan Teklad Rodent Diet (Harlan, Madison Wis.). Mice were injected with 0.2 mL solution of delivery peptide and 0.2 mL siRNA conjugates into the tail vein. For simultaneous injection of delivery peptide and siRNA, the siRNA-conjugate was added to modified peptide prior to injection and the entire amount was injected. The composition was soluble and nonaggregating in physiological conditions. Solutions were injected by infusion into the tail vein.
Mice were fasted for 4 h (16 h for rats) before serum collection by submandibular bleeding. For rats blood was collected from the jugular vein. Serum ApoB protein levels were determined by standard sandwich ELISA methods. Briefly, a polyclonal goat anti-mouse ApoB antibody and a rabbit anti-mouse ApoB antibody (Biodesign International) were used as capture and detection antibodies respectively. An HRP-conjugated goat anti-rabbit IgG antibody (Sigma) was applied afterwards to bind the ApoB/antibody complex. Absorbance of tetramethyl-benzidine (TMB, Sigma) colorimetric development was then measured by a Tecan Safire2 (Austria, Europe) microplate reader at 450 nm.
Melittin was reversibly modified with CDM-NAG as described above. The indicated amount of melittin was then co-injected with the 200 μg ApoB siRNA-cholesterol conjugate. Effect on ApoB levels were determined as described above.
Melittin was reversibly modified with CDM-NAG as described above. The indicated amount of melittin was then co-injected with 50 μg ApoB siRNA-cholesterol conjugate. Effect on ApoB levels were determined as described above.
Melittin was reversibly modified with CDM-NAG (5×) as described above. The indicated amount of melittin was then co-injected with the indicated amount of ApoB siRNA-cholesterol conjugate. Effect on ApoB levels were determined as described above.
Melittin was reversibly modified with the indicated amount of CDM-NAG as described above. 50 μg melittin was then co-injected with the 100 μg ApoB siRNA-cholesterol conjugate. Effect on ApoB levels were determined as described above.
Melittin peptides having the indicated sequence were reversibly modified with CDM-NAG (5×) as described above. The indicated amount of melittin was then co-injected with the indicated amount of ApoB siRNA-cholesterol conjugate. Effect on ApoB levels were determined as described above.
Melittin peptides containing the indicated PEG amino terminal modifications were synthesized as described above. The PEG amino terminal modified melittin peptides were then reversibly modified with 5×CDM-NAG as described above. The indicated amount of Melittin was then co-injected with the 100-200 μg ApoB siRNA-cholesterol conjugate. Effect on ApoB levels were determined as described above. Addition of PEG less than 5 kDa in size decreased toxicity of the melittin peptides.

[1] = CDM-NAG (5×), 400 μg peptide per mouse, 100 μg siRNA per mouse
[2] = CDM-NAG (5×), 100 μg peptide per mouse, 100 μg siRNA per mouse
[3] = CDM-NAG (5×), 400 μg peptide per mouse, 200 μg siRNA per mouse
[4] = CDM-NAG (5×), 50 μg peptide per mouse, 100 μg siRNA per mouse
[5] = CDM-NAG (5×), 80 μg peptide per mouse, 100 μg siRNA per mouse

G1Y, K7A (Seq ID 17): melittin peptide derivative (YIGAILAVLATGLPTLISWIKNKRKQ; melittin-like peptide derive from Apis florea)
percent knockdown [1]: 83%

G1C (Seq ID 3): melittin peptide derivative (CIGAILKVLATGLPTLISWIKNKRKQ; melittin-like peptide derive from Apis florea)
percent knockdown [2]: 37%

G1V (Seq ID 9): melittin peptide derivative (VIGAILKVLATGLPTLISWIKNKRKQ; melittin-like peptide derive from Apis florea)
percent knockdown [2]: 91%

QQRKRKIWSILAPLGTTLVKLVAGIC-(N-PDP-PE)-NH2 (not fully specified (some residues, C-terminus); also: D-amino acids, positions not given here) [PE = dioleolyl-phosphatidyl-ethanolamine]
percent knockdown [3]: 55%

QQKKKKIWSILAPLGTTLVKLVAGIC-NH2 [Seq ID 93]
percent knockdown (CDM-NAG (5×), siRNA 20 mg/kg): 70%

G1L, G12L (Seq ID 22): melittin peptide derivative (LIGAILKVLATLLPTLISWIKNKRKQ; melittin-like peptide derive from Apis florea)
percent knockdown [1]: 93%

T11G, T15G, S18G (Seq ID 39): melittin peptide derivative (GIGAILKVLACGLPGLIGWIKNKRKQ; melittin-like peptide derive from Apis florea)
percent knockdown [4]: 32%

G1L Mel-Cys (Seq ID 63): melittin peptide derivative (LIGAILKVLATGLPTLISWIKNKRKQC; C-terminal cysteine; melittin-like peptide derive from Apis florea)
percent knockdown [1]: 82%

G1L, L5V, A10T, T15A, N22G, K23E dMel (1-23) (Seq ID 73): melittin peptide derivative
percent knockdown [1]: 92%

G1Y Mel-PLGIAGQC (Seq ID 66): melittin peptide derivative (YIGAILKVLATGLPTLISWIKNKRKQPLGIAGQC; C-terminal PLGIAGQC extension; melittin-like peptide derive from Apis florea)
percent knockdown [2]: 79%

myristoyl-CKLK-Mel G1L (Seq ID 111): melittin peptide derivative (Myristoyl-CKLKLIGAILKVLATGLPTLISWIKNKRKQ)
percent knockdown [5]: 96%

G12W (Seq ID 14): melittin peptide derivative (GIGAILKVLATWLPTLISWIKNKRKQ; melittin-like peptide derive from Apis florea)
percent knockdown [5]: 51%

G1L retroMel-Stearoyl (Seq ID 74): melittin peptide derivative (QKRKNKIWSILTPLGTALVKLIAGIL; also: stearoyl, site not given here)
percent knockdown [1]: 56%

G1L, Mel-KKKKK (Seq ID 67): melittin peptide derivative (LIGAILKVLATGLPTLISWIKNKRKQKKKKK; C-terminal KKKKK extension; melittin-like peptide derive from Apis florea)
percent knockdown [1]: 96%

(Ac-CIGAVLKVLTTGLPALISWIKRKRQQ-NH2)2
percent knockdown [3]: 45%

G1dI (D form Ile at 1^st position, Seq ID 6): melittin peptide derivative ([dI]IGAILKVLATGLPTLISWIKNKRKQ)
percent knockdown [4]: 34%

G1L, R24A (Seq ID 30): melittin peptide derivative (LIGAILKVLATGLPTLISWIKNKAKQ; melittin-like peptide derive from Apis florea)
percent knockdown [2]: 87%

CFK-G1L dMel-C (Seq ID 69): melittin peptide derivative (CFKLIGAILKVLATGLPTLISWIKNKRKQC; not fully specified (some residues); cysteine pairing not given here)
percent knockdown [2]: 79%

G1Nle Mel-C (Seq ID 64): melittin peptide derivative ([Nle]IGAILKVLATGLPTLISWIKNKRKQC)
percent knockdown (CDM-NAG (5×), 400 μg peptide per mouse, 50 μg siRNA per mouse): 89%

G1H (Seq ID 5): melittin peptide derivative (HIGAILKVLATGLPTLISWIKNKRKQ; melittin-like peptide derive from Apis florea)
percent knockdown [1]: 78%

G1L, I2V, I5V, I17V, I20V (Seq ID 45): melittin peptide derivative (LVGAVLKVLATGLPTLVSWVKNKRKQ; melittin-like peptide derive from Apis florea)
percent knockdown [2]: 24%

G1L, K7S (Seq ID 18): melittin peptide derivative (LIGAILSVLATGLPTLISWIKNKRKQ; melittin-like peptide derive from Apis florea)
percent knockdown [2]: 89%

G1Y-Mel-NH2 (Seq ID 110): melittin peptide derivative (YIGAILKVLATGLPTLISWIKNKRKQ-NH2)
percent knockdown (CDM-NAG (5×), 200 μg peptide per mouse, 200 μg siRNA per mouse): 94%

QKRKNKIWSILTPLGTALVKLIAGIG-NH2 [Seq ID 96]
percent knockdown (CDM-NAG (5×), siRNA 20 mg/kg): 70%

N22T Mel-NH2 (Seq ID 15): melittin peptide derivative (GIGAILKVLATGLPTLISWIKTKRKQ-NH2)
percent knockdown [4]: 34%

Dimethyl G-Mel G1L (Seq ID 53): melittin peptide derivative (dimethyl-GLIGAILKVLATGLPTLISWIKNKRKQ)
percent knockdown [2]: 91%

G1L d(1-11)-1(12-26) (Seq ID 109): melittin peptide derivative ([dL][dI]G[dA][dI][dL][dK][dV][dL][dA][dT]GLPTLISWIKNKRKQ)
percent knockdown [2]: 70%

G1L, T11C, S18C dMel (Seq ID 38): melittin peptide derivative ([dL][dI]G[dA][dI][dL][dK][dV][dL][dA][dC]G[dL][dP][dT][dL][dI][dC][dW][dI][dK][dN][dK][dR][dK][dQ]; cysteine pairing not given here)
percent knockdown [2]: 88%

G1Nle (Seq ID 8): melittin peptide derivative ([Nle]IGAILKVLATGLPTLISWIKNKRKQ)
percent knockdown [2]: 96%

Mel-Cys (Seq ID 62): melittin peptide derivative (GIGAILKVLATGLPTLISWIKNKRKQC; C-terminal Cys; melittin-like peptide derive from Apis florea)
percent knockdown [1]: 83%

G1Y, Q26C (Seq ID 32): melittin peptide derivative (YIGAILKVLATGLPTLISWIKNKRKC; melittin-like peptide derive from Apis florea)
percent knockdown [2]: 93%

Leu-Melittin (Seq ID 7) L form: G1L melittin peptide, L form amino acids (LIGAILKVLATGLPTLISWIKNKRKQ; melittin-like peptide derive from Apis florea)
% knockdown (1× CDM-NAG, 100 μg siRNA, 50 μg peptide): 74%
% knockdown (2× CDM-NAG, 100 μg siRNA, 50 μg peptide): 88%
% knockdown (5× CDM-NAG, 50 μg siRNA, 25 μg peptide): 15%
% knockdown (5× CDM-NAG, 50 μg siRNA, 50 μg peptide): 70%
% knockdown (5× CDM-NAG, 50 μg siRNA, 100 μg peptide): 90%
% knockdown (5× CDM-NAG, 50 μg siRNA, 200 μg peptide): 90%
% knockdown (5× CDM-NAG, 50 μg siRNA, 400 μg peptide): 90%
% knockdown (5× CDM-NAG, 100 μg siRNA, 50 μg peptide): 82%
percent knockdown (5× CDM-NAG, no PEG modification, 25 μg peptide, 100 μg siRNA): 0%
percent knockdown (5× CDM-NAG, no PEG modification, 50 μg peptide, 100 μg siRNA): 72%
percent knockdown (5× CDM-NAG, no PEG modification, 100 μg peptide, 100 μg siRNA): 94%

G1L Mel (1-23) (Seq ID 71): melittin peptide derivative (LIGAILKVLATGLPTLISWIKNK; melittin-like peptide derive from Apis florea)
percent knockdown [1]: 69%

— patent US9526796B2, “Peptide-based in vivo siRNA delivery system” (priority 2010, dated 2016)
